# Measured values: patent publication US7560229B2, “Methods of use of the enzymes of mycothiol synthesis” (priority 2002, dated 2009)
# Read-outs that look alike come from different tables or passages of the source.
# Tests used:
# [1] = test system: M. smegmatis transposon mutant Tn2 (MshC deficient); type: cell-based; settings: Tn2, from MIC
# Protocol: (§1) To test this hypothesis, Tn1, Tn2, and I64 were grown on PBT plates supplemented with increasing amounts of the alkylating agents mBBr, iodoacetamide, and 1-chloro-2,4-dinitrobenzene (CDNB). The alkylating agents were poured into the molten agar.
# [2] = test system: M. smegmatis transposon mutant Tn1 (MshC deficient); type: cell-based; settings: Tn1, from MIC
# Protocol: as §1
# [3] = test system: M. smegmatis chemical mutant I64 (MshC deficient); type: cell-based; settings: I64, from MIC
# Protocol: as §1
# [4] = target: M. smegmatis Cys:GlcN-Ins ligase (MshC) (Mycolicibacterium smegmatis, UniProt A0QZY0); experiment: ATP-dependent Cys:GlcN-Ins ligase assay, substrate kinetics; settings: [ATP]=1 mM, [Cys]=100 μM
# Protocol: (§4) A minor modification of the protocol described by Anderberg et al (supra) was used for routine measurement of ATP-dependent ligase activity. The enzyme activity was assayed in a final volume of 25 μL containing 12.5 μL of the ligase in different dilutions, 50 μM GlcN-Ins, 100 μM Cys (Calbiochem), 1 mM ATP (Sigma), 1 mM MgCl2 (Fisher), 1 mM DTT (Calbiochem), 25 mM N-2-hydroxyethylpiperazine-N′-2-ethanesulfonic acid (HEPES) (Sigma), pH 7.5, and 35 μM each of the protease inhibitors (Sigma) N-α-p-tosyl-L-phenylalanylchloromethyl ketone and N-α-p-tosyl-L-lysinechloromethyl ketone. The mixture was incubated at 37° C. for 30 min. The assay was terminated by addition of 25 μL of 8 mM mBBr in acetonitrile and heating the mixture at 60° C. for 5 min to derivatize the thiols. The derivatization was quenched with the addition of 150 μl of 10 mM methanesulfonic acid and vortexing. HPLC analysis of CySmB-GlcN-Ins and CySmB was carried out by HPLC using a Beckman Ultrasphere IP (250×4.6 mm) analytical column fitted with a Brownley OD-GU 5 μ C-18 cartridge using the following linear gradients: 0 min., 100% A (0.1% TFA in water); 10 min, 100% A; 30 min, 80% A; 33 min, 100% B (7.5% methanol in acetonitrile); 36 min, 100% B; 38 min, 100% A; 60 min, 100% A (reinjection). The flow rate was 1 mL/min. and the fluorescence detection was accomplished with a 370 nm excitation filter and a 418-700 nm emission filter. The Vmax and Km values were calculated by least-squares analysis of Eadie-Hofstee plots with initial rate data using KaleidaGraph 3.5 (Synergy Software).
# M. smegmatis mc^2155 = settings: mc^2155, plating on antibiotic containing media, found earlier; cited from earlier work
# M. smegmatis mutant 49 = settings: cited from earlier work
# [5] = test system: M. smegmatis complemented mshA::Tn5 (mshA::Tn5 pAL0486); experiment: Isoniazid MIC by Estrip; type: cell-based; settings: Mycolicibacterium smegmatis
# [6] = test system: M. smegmatis chemical mutant 49; experiment: Isoniazid MIC by Estrip; type: cell-based; settings: Mycolicibacterium smegmatis
# [7] = test system: M. smegmatis complemented strain 49 (49::pAL0486); experiment: Isoniazid MIC by Estrip; type: cell-based; settings: Mycolicibacterium smegmatis
# M. smegmatis mutant I64 [8] = experiment: Antibiotic sensitivity test (MIC); type: cell-based
# [9] = test system: M. smegmatis parent strain mc^2155; experiment: Isoniazid MIC by Estrip; type: cell-based; settings: Mycolicibacterium smegmatis; mc^2155, Estrip, 2-3 days at 37° C.
# [10] = test system: M. smegmatis transposon mutant mshA::Tn5; experiment: Isoniazid MIC by Estrip; type: cell-based; settings: Mycolicibacterium smegmatis
# [11] = test system: M. smegmatis mc^2155 (wild type); experiment: Disk assay, redox cycling agents, zone of inhibition; type: cell-based
# Protocol: (§2) To determine sensitivity to redox cycling agents, disk assays were performed. Briefly, cells were grown to mid-log phase and a lawn of cells was plated onto PBT or LB plates supplemented with appropriate antibiotics. Various amounts of redox-cycling agents plumbagin, and […] menadione and nitrofurantoin were added to the disk in 10 μl volume and allowed to dry. The disks were placed onto the lawn of cells and incubated 2-3 days.
# M. smegmatis mutant Tn2 [12] = type: cell-based
# Protocol: as §2
# M. smegmatis mutant I64 [13] = type: cell-based
# Protocol: as §2
# M. smegmatis mutant Tn1 [14] = type: cell-based
# Protocol: as §2
# M. smegmatis mutant Tn2 [15] = test system: M. smegmatis mutant Tn2
# Protocol: (§3) Peroxide sensitivity was determined by incubating cells (2.5×10^7 per ml) at 37° C. in Middlebrook 7H9 medium with 0.4% glucose and 0.05% TWEEN® 80 containing hydrogen peroxide at the desired level for 2 hours with shaking. Cells were diluted in fresh medium and plated on 7H10 agar. Colonies were counted when they achieved a diameter of 1-2 mm, which required 4-5 days for the wild type strain and up to 10 days for MSH-deficient mutant strains.
# [16] = test system: M. smegmatis mc^2155 (wild type)
# Protocol: as §3
# M. smegmatis mutant I64 [17] = settings: I64, FIG. 6
# Protocol: as §3
# M. smegmatis mutant Tn1 [18] = test system: M. smegmatis mutant Tn1
# Protocol: as §3
# N[C@@H](CS)C(=O)O = experiment: purified protein, by the assay type; settings: other: [ATP]=1 mM, [GlcN-Ins]=300 μM, Cys 5-400 μM; pH 7.5
# Protocol: as §4
# Chain of M. smegmatis Cys:GlcN-Ins ligase (MshC) (A0QZY0 whole entry): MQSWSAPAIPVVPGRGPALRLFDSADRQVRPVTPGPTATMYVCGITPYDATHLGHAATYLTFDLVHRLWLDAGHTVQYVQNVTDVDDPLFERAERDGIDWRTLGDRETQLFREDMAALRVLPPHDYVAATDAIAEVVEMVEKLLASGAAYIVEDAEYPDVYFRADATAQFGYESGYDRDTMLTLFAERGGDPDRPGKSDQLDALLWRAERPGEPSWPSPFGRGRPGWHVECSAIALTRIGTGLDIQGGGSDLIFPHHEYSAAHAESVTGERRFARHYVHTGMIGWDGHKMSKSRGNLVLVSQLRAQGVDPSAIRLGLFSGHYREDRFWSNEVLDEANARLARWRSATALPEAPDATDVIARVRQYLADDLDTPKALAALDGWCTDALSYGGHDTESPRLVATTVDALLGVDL
compound,measurement,setting,value
"O=[N+]([O-])c1ccc(Cl)c([N+](=O)[O-])c1 [CDNB, 1-chloro-2,4-dinitrobenzene]",increase in sensitivity compared to wild type mc^2155,[1],2-3 fold
same,increase in sensitivity compared to wild type mc^2155,[2],2-3 fold
"CN(C)C(=O)/N=N/C(=O)N(C)C [Diamide, diamide]",increase in sensitivity compared to wild type mc^2155,[3],doubled
same,increase in sensitivity compared to wild type mc^2155,[1],greater than 10 fold
same,increase in sensitivity compared to wild type mc^2155,[2],greater than 10 fold
"N[C@H]1[C@@H](OC2[C@H](O)[C@H](O)C(O)[C@H](O)[C@H]2O)O[C@H](CO)[C@@H](O)[C@@H]1O (stereo partly drawn) [GlcN-Ins, 1D-myo-inosityl 2-amino-2-deoxy-α-D-glucopyranoside]",Vmax (GlcN-Ins varied),[4],90 ± 7 nmol/min/mg
same,Km,"[4]; read-out: apparent Km for GlcN-Ins, GlcN-Ins 5-600 μM",72 ± 9 µM
"NC(=O)CI [Iodoacetamide, iodoacetamide]",increase in sensitivity compared to wild type mc^2155,[3],two-fold
same,increase in sensitivity compared to wild type mc^2155,[1],5 fold
same,increase in sensitivity compared to wild type mc^2155,[2],two-fold
"NNC(=O)c1ccncc1 [Isoniazid, isoniazid]",MIC,M. smegmatis mc^2155,2 µg/mL
same,MIC,"M. smegmatis mutant 49; mutant 49, plating on antibiotic containing media, found earlier",> 50 µg/mL
same,isoniazid concentration to which strain 49 is resistant,M. smegmatis mutant 49; strain 49 (Newton et al. 1999),100 μg isoniazid/ml
same,MIC,[5],2.7 µg/mL
same,MIC,[6],> 250 µg/mL
same,MIC,[7],28 µg/mL
same,fold greater resistance than the wild type,M. smegmatis mutant I64 [8],16 fold
same,MIC,[9],1 µg/mL
same,MIC,[10],> 250 µg/mL
"CC1=CC(=O)c2ccccc2C1=O [Menadione, menadione]",Zone of Inhibition,[11]; 0.1 μmol agent on disk,9.7 ± 0.3 mm
same,Zone of Inhibition,[11]; 0.5 μmol agent on disk,19.7 ± 0.9 mm
same,Zone of Inhibition,"M. smegmatis mutant Tn2 [12]; Tn2, 0.1 μmol agent on disk",15.3 ± 2.0 mm
same,Zone of Inhibition,"M. smegmatis mutant Tn2 [12]; Tn2, 0.5 μmol agent on disk",16.4 ± 1.9 mm
same,Zone of Inhibition,"M. smegmatis mutant I64 [13]; I64, 0.1 μmol agent on disk",8.7 ± 0.7 mm
same,Zone of Inhibition,"M. smegmatis mutant I64 [13]; I64, 0.5 μmol agent on disk",26.7 ± 0.9 mm
same,Zone of Inhibition,"M. smegmatis mutant Tn1 [14]; Tn1, 0.1 μmol agent on disk",20.7 ± 3.8 mm
same,Zone of Inhibition,"M. smegmatis mutant Tn1 [14]; Tn1, 0.5 μmol agent on disk",31.3 ± 1.3 mm
"O=C1CN(/N=C/c2ccc([N+](=O)[O-])o2)C(=O)N1 [Nitrofurantoin, nitrofurantoin]",Zone of Inhibition,[11]; 0.5 μmol agent on disk,4.7 ± 0.3 mm
same,Zone of Inhibition,[11]; 1.0 μmol agent on disk,6.0 ± 0.6 mm
same,Zone of Inhibition,"M. smegmatis mutant Tn2 [12]; Tn2, 1.0 μmol agent on disk",35.0 ± 3.6 mm
same,Zone of Inhibition,"M. smegmatis mutant I64 [13]; I64, 0.5 μmol agent on disk",5.0 ± 0.6 mm
same,Zone of Inhibition,"M. smegmatis mutant I64 [13]; I64, 1.0 μmol agent on disk",8.7 ± 0.3 mm
same,Zone of Inhibition,"M. smegmatis mutant Tn1 [14]; Tn1, 0.5 μmol agent on disk",10.7 ± 2.6 mm
same,Zone of Inhibition,"M. smegmatis mutant Tn1 [14]; Tn1, 1.0 μmol agent on disk",14.0 ± 2.7 mm
"CC1=CC(=O)c2c(O)cccc2C1=O [Plumbagin, plumbagin]",Zone of Inhibition,[11]; 0.005 μmol agent on disk,11.0 ± 1.0 mm
same,Zone of Inhibition,[11]; 0.01 μmol agent on disk,13.5 ± 0.5 mm
same,Zone of Inhibition,"M. smegmatis mutant Tn2 [12]; Tn2, 0.005 μmol agent on disk",15.0 ± 0.0 mm
same,Zone of Inhibition,"M. smegmatis mutant Tn2 [12]; Tn2, 0.01 μmol agent on disk",23.0 ± 1.0 mm
same,Zone of Inhibition,"M. smegmatis mutant I64 [13]; I64, 0.005 μmol agent on disk",9.3 ± 0.9 mm
same,Zone of Inhibition,"M. smegmatis mutant I64 [13]; I64, 0.01 μmol agent on disk",13.3 ± 1.9 mm
same,Zone of Inhibition,"M. smegmatis mutant Tn1 [14]; Tn1, 0.005 μmol agent on disk",17.0 ± 0.6 mm
same,Zone of Inhibition,"M. smegmatis mutant Tn1 [14]; Tn1, 0.01 μmol agent on disk",23.0 ± 1.2 mm
OO [hydrogen peroxide],H2O2 concentration the strain is unable to tolerate,"M. smegmatis mutant Tn2 [15]; Tn2, 2 hours at 37° C., FIG. 6",≤ 1 MM
same,times more sensitive to hydrogen peroxide than the wild type strain,"M. smegmatis mutant Tn2 [15]; Tn2, FIG. 6",about 10 times
same,H2O2 concentration at which the strain can survive,[16],10 mM
same,tolerance to peroxide stress,M. smegmatis mutant I64 [17],intermediate between wild type mc^2155 and the transposon mutants
same,H2O2 concentration the strain is unable to tolerate,"M. smegmatis mutant Tn1 [18]; Tn1, 2 hours at 37° C., FIG. 6",≤ 1 MM
same,times more sensitive to hydrogen peroxide than the wild type strain,"M. smegmatis mutant Tn1 [18]; Tn1, FIG. 6",about 10 times
"Cc1c(C)n2c(CBr)c(C)c(=O)n2c1=O [mBBr, monobromobimane]",increase in sensitivity compared to wild type mc^2155,[3],more susceptible
same,increase in sensitivity compared to wild type mc^2155,[1],4 fold
same,increase in sensitivity compared to wild type mc^2155,[2],4 fold
M. smegmatis Cys:GlcN-Ins ligase (MshC) (Mycolicibacterium smegmatis MC2 155),Km,N[C@@H](CS)C(=O)O,40 ± 3 µM
same,Vmax,N[C@@H](CS)C(=O)O,83 ± 3 nmol/min/mg
